The subject of this data set is tobacco budworm (Heliothis virescens [Fabricius]). Briefly: surface-treated diet test, insecticidal activity against tobacco budworm. Format: in vivo. To be noted: 0.25 millimoles of candidate insecticide on the surface of the diet, second instar larvae, five-day exposure; for Percent Mortality: compared to total number of insects infested; for Percent Growth Inhibition: inhibition of insect weight relative to untreated controls. The gist of the method:
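Second-instar larvae (~5 mg) were held five days at 25° C and 60% RH on artificial diet whose surface carried dried compound (0.25 millimolar standard rate; DMSO serial dilutions for rate series, six replicates each). Readouts: mortality and weight inhibition relative to DMSO-treated controls.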

As to `O=C(Nc1ccc(CN2CCC(O)(C(c3ccc(C(F)(F)F)cc3)c3ccc(C(F)(F)F)cc3)CC2)cc1)OCC1CC1` [Compound 319], the “Percent Mortality” value turned out to be 100% and the “Percent Growth Inhibition” value is 100%.

`O=C(NC1CCCC1)Oc1ccc(CN2CCC(O)(C(c3ccc(OC(F)(F)F)cc3)c3ccc(OC(F)(F)F)cc3)CC2)cc1` [Compound 320]: the “Percent Mortality” value worked out at 100% and the “Percent Growth Inhibition” value is 100%.

Take `Cc1ccnc(Oc2ccc(CN3CCC(O)(C(c4ccc(OC(F)(F)F)cc4)c4ccc(OC(F)(F)F)cc4)CC3)cc2)c1` [Compound 321]: the “Percent Mortality” value turned out to be 100% and the “Percent Growth Inhibition” value is listed as 100%.

Take `OC1(C(c2ccc(OC(F)(F)F)cc2)c2ccc(OC(F)(F)F)cc2)CCN(Cc2ccc(Oc3ncccc3Cl)cc2)CC1` [Compound 322]: the “Percent Mortality” value was 100% and the “Percent Growth Inhibition” value was 100%.

With `O=C(NCc1ccc(Cl)c(Cl)c1)Oc1ccc(CN2CCC(O)(C(c3ccc(OC(F)(F)F)cc3)c3ccc(OC(F)(F)F)cc3)CC2)cc1` [Compound 323], the “Percent Mortality” value was 33% and the “Percent Growth Inhibition” value came out at 100%.

Regarding `O=C(Nc1ccc(Cl)cc1)Oc1ccc(CN2CCC(O)(C(c3ccc(OC(F)(F)F)cc3)c3ccc(OC(F)(F)F)cc3)CC2)cc1` [Compound 324], the “Percent Mortality” value was determined as 33% and the “Percent Growth Inhibition” value came to 100%.

In the case of `CCCCNC(=O)Oc1ccc(CN2CCC(O)(C(c3ccc(OC(F)(F)F)cc3)c3ccc(OC(F)(F)F)cc3)CC2)cc1` [Compound 326], the “Percent Mortality” value is reported as 100% and the “Percent Growth Inhibition” value was determined as 100%.

Turning to `O=C(Nc1ccc(CN2CCC(O)(C(c3ccc(OC(F)(F)F)cc3)c3ccc(OC(F)(F)F)cc3)CC2)cc1)OCC1CC1` [Compound 327], the “Percent Mortality” value amounted to 100% and the “Percent Growth Inhibition” value was determined as 100%.

For the compound `O=C(NC1CCCCC1)Oc1ccc(CN2CCC(O)(C(c3ccc(OC(F)(F)F)cc3)c3ccc(OC(F)(F)F)cc3)CC2)cc1` [Compound 329], the “Percent Mortality” value amounted to 67% and the “Percent Growth Inhibition” value is recorded as 100%.

Consider `CC(C)OC(=O)c1ccc(CN2CCC(O)(C(c3ccc(C(F)(F)F)cc3)c3ccc(C(F)(F)F)cc3)CC2)cc1` [Compound 330], for which the “Percent Mortality” value was 100% and the “Percent Growth Inhibition” value is listed as 100%.

For `CC(C)(C)c1ccc(C(c2ccc(OC(F)(F)F)cc2)C2(O)CC[N+]([O-])(Cc3ccc(Oc4ccccn4)cc3)CC2)cc1` (centres unmarked) [Compound 335], the “Percent Mortality” value is recorded as 100% and the “Percent Growth Inhibition” value is on record as 100%.

Consider `COCCOCCON=Cc1ccc(C[N+]2([O-])CCC(O)(C(c3ccc(OC(F)(F)F)cc3)c3ccc(OC(F)(F)F)cc3)CC2)cc1` (centres unmarked) [Compound 336], for which the “Percent Mortality” value amounted to 100% and the “Percent Growth Inhibition” value was 100%.

Turning to `CCOCON=Cc1ccc(C[N+]2([O-])CCC(O)(C(c3ccc(OC(F)(F)F)cc3)c3ccc(OC(F)(F)F)cc3)CC2)cc1` (centres unmarked) [Compound 337], the “Percent Mortality” value is reported as 100% and the “Percent Growth Inhibition” value is recorded as 100%.

For `COc1ccc(C(c2ccc(OC(F)(F)F)cc2)C2(O)CC[N+]([O-])(Cc3ccc(Oc4ccccn4)cc3)CC2)cc1` (centres unmarked) [Compound 338], the “Percent Mortality” value is recorded as 100% and the “Percent Growth Inhibition” value was found to be 100%.

In the case of `[O-][N+]1(Cc2ccc(Oc3ccccn3)cc2)CCC(O)(C(c2ccc(Br)cc2)c2ccc(OC(F)(F)F)cc2)CC1` (centres unmarked) [Compound 339], the “Percent Mortality” value was 100% and the “Percent Growth Inhibition” value was 100%.

Take `Cc1ccc(C(c2ccc(OC(F)(F)F)cc2)C2(O)CC[N+]([O-])(Cc3ccc(Oc4ccccn4)cc3)CC2)cc1` (centres unmarked) [Compound 340]: the “Percent Mortality” value is recorded as 100% and the “Percent Growth Inhibition” value is recorded as 100%.

As to `[O-][N+]1(Cc2ccc(C3OCCO3)cc2)CCC(O)(C(c2ccc(OC(F)(F)F)cc2)c2ccc(OC(F)(F)F)cc2)CC1` (centres unmarked) [Compound 341], the “Percent Mortality” value is 100% and the “Percent Growth Inhibition” value stood at 100%.

Take `[O-][N+]1(Cc2ccc(C3OCCO3)cc2)CCC(O)(C(c2ccc(C(F)(F)F)cc2)c2ccc(C(F)(F)F)cc2)CC1` (centres unmarked) [Compound 342]: the “Percent Mortality” value is listed as 100% and the “Percent Growth Inhibition” value was 100%.

On to `[O-][N+]1(Cc2ccc(Oc3ccccn3)cc2)CCC(O)(C(c2ccc(OC(F)(F)F)cc2)c2ccc(C(F)(F)F)cc2)CC1` (centres unmarked) [Compound 343], for which the “Percent Mortality” value worked out at 100% and the “Percent Growth Inhibition” value was 100%.

Turning to `COCCON=Cc1ccc(C[N+]2([O-])CCC(O)(C(c3ccc(OC(F)(F)F)cc3)c3ccc(OC(F)(F)F)cc3)CC2)cc1` (centres unmarked) [Compound 344], the “Percent Mortality” value amounted to 100% and the “Percent Growth Inhibition” value is 100%.

As for `[O-][N+]1(Cc2ccc(Oc3ccccn3)cc2)CCC(O)(C(c2ccc(Cl)cc2)c2ccc(Cl)cc2)CC1` (centres unmarked) [Compound 345], the “Percent Mortality” value is 100% and the “Percent Growth Inhibition” value was 100%.

In the case of `[O-][N+]1(Cc2ccc(Oc3ccccn3)cc2)CCC(O)(C(c2ccc(F)cc2)c2ccc(OC(F)(F)F)cc2)CC1` (centres unmarked) [Compound 346], the “Percent Mortality” value is reported as 100% and the “Percent Growth Inhibition” value is on record as 100%.

Turning to `[O-][N+]1(Cc2ccc(Oc3ccccn3)cc2)CCC(O)(C(c2ccc(OC(F)F)cc2)c2ccc(OC(F)(F)F)cc2)CC1` (centres unmarked) [Compound 347], the “Percent Mortality” value was found to be 100% and the “Percent Growth Inhibition” value is recorded as 100%.

Consider `Cc1cccnc1Oc1ccc(C[N+]2([O-])CCC(O)(C(c3ccc(OC(F)(F)F)cc3)c3ccc(OC(F)(F)F)cc3)CC2)cc1` (centres unmarked) [Compound 349], for which the “Percent Mortality” value came out at 100% and the “Percent Growth Inhibition” value is listed as 100%.

Regarding `Cc1ccc(Oc2ccc(C[N+]3([O-])CCC(O)(C(c4ccc(OC(F)(F)F)cc4)c4ccc(OC(F)(F)F)cc4)CC3)cc2)nc1` (centres unmarked) [Compound 350], the “Percent Mortality” value is 100% and the “Percent Growth Inhibition” value came out at 100%.

Regarding `CCOC(OCC)c1ccc(C[N+]2([O-])CCC(O)(C(c3ccc(OC(F)(F)F)cc3)c3ccc(OC(F)(F)F)cc3)CC2)cc1` (centres unmarked) [Compound 351], the “Percent Mortality” value worked out at 100% and the “Percent Growth Inhibition” value came to 100%.

`N#CCON=Cc1ccc(C[N+]2([O-])CCC(O)(C(c3ccc(OC(F)(F)F)cc3)c3ccc(OC(F)(F)F)cc3)CC2)cc1` (centres unmarked) [Compound 353]: the “Percent Mortality” value came to 100% and the “Percent Growth Inhibition” value was 100%.

As to `Cc1cccc(Oc2ccc(C[N+]3([O-])CCC(O)(C(c4ccc(OC(F)(F)F)cc4)c4ccc(OC(F)(F)F)cc4)CC3)cc2)n1` (centres unmarked) [Compound 354], the “Percent Mortality” value is 100% and the “Percent Growth Inhibition” value was found to be 100%.

As to `CON=C(Cl)c1ccc(C[N+]2([O-])CCC(O)(C(c3ccc(OC(F)(F)F)cc3)c3ccc(OC(F)(F)F)cc3)CC2)cc1` (centres unmarked) [Compound 355], the “Percent Mortality” value is 100% and the “Percent Growth Inhibition” value is reported as 100%.

On to `CCOC(=O)COc1ccc(C[N+]2([O-])CCC(O)(C(c3ccc(OC(F)(F)F)cc3)c3ccc(OC(F)(F)F)cc3)CC2)cc1` (centres unmarked) [Compound 357], for which the “Percent Mortality” value is 0% and the “Percent Growth Inhibition” value stood at 100%.

As for `CC1(C)COC(c2ccc(C[N+]3([O-])CCC(O)(C(c4ccc(OC(F)(F)F)cc4)c4ccc(OC(F)(F)F)cc4)CC3)cc2)OC1` (centres unmarked) [Compound 358], the “Percent Mortality” value is given as 100% and the “Percent Growth Inhibition” value was 100%.

As to `N#Cc1cccnc1Oc1ccc(C[N+]2([O-])CCC(O)(C(c3ccc(OC(F)(F)F)cc3)c3ccc(OC(F)(F)F)cc3)CC2)cc1` (centres unmarked) [Compound 359], the “Percent Mortality” value is recorded as 100% and the “Percent Growth Inhibition” value worked out at 100%.

Regarding `[O-][N+]1(Cc2ccc(C3OCCCO3)cc2)CCC(O)(C(c2ccc(OC(F)(F)F)cc2)c2ccc(OC(F)(F)F)cc2)CC1` (centres unmarked) [Compound 370], the “Percent Mortality” value is reported as 100% and the “Percent Growth Inhibition” value was determined as 100%.

With `[O-][N+]1(Cc2ccc(OCC=C(Cl)Cl)cc2)CCC(O)(C(c2ccc(OC(F)(F)F)cc2)c2ccc(OC(F)(F)F)cc2)CC1` (centres unmarked) [Compound 371], the “Percent Mortality” value was 100% and the “Percent Growth Inhibition” value worked out at 100%.

With `[O-][N+]1(Cc2ccc(Oc3ccccc3Cl)cc2)CCC(O)(C(c2ccc(OC(F)(F)F)cc2)c2ccc(OC(F)(F)F)cc2)CC1` (centres unmarked) [Compound 375], the “Percent Mortality” value is 100% and the “Percent Growth Inhibition” value is recorded as 100%.

For the compound `[O-][N+]1(Cc2ccc(C=NOCC(F)(F)F)cc2)CCC(O)(C(c2ccc(OC(F)(F)F)cc2)c2ccc(OC(F)(F)F)cc2)CC1` (centres unmarked) [Compound 378], the “Percent Mortality” value was 100% and the “Percent Growth Inhibition” value amounted to 100%.

In the case of `CC(C)Oc1ccc(C[N+]2([O-])CCC(O)(C(c3ccc(C(F)(F)F)cc3)c3ccc(C(F)(F)F)cc3)CC2)cc1` (centres unmarked) [Compound 380], the “Percent Mortality” value turned out to be 100% and the “Percent Growth Inhibition” value is 100%.

Take `[O-][N+]1(Cc2ccc(OCc3ccccc3)cc2)CCC(O)(C(c2ccc(OC(F)(F)F)cc2)c2ccc(OC(F)(F)F)cc2)CC1` (centres unmarked) [Compound 381]: the “Percent Mortality” value was found to be 100% and the “Percent Growth Inhibition” value was 100%.

On to `[O-][N+]1(Cc2ccc(OCC3CC3)cc2)CCC(O)(C(c2ccc(C(F)(F)F)cc2)c2ccc(C(F)(F)F)cc2)CC1` (centres unmarked) [Compound 383], for which the “Percent Mortality” value worked out at 100% and the “Percent Growth Inhibition” value amounted to 100%.

Regarding `[O-][N+]1(Cc2ccc(Oc3ccc(Cl)nn3)cc2)CCC(O)(C(c2ccc(C(F)(F)F)cc2)c2ccc(C(F)(F)F)cc2)CC1` (centres unmarked) [Compound 384], the “Percent Mortality” value is reported as 100% and the “Percent Growth Inhibition” value is 100%.

(Values after patent publication US8119563B2, “N-substituted azacycles” (FMC Corporation, priority 2003, dated 2012).)
